Laboratory results from US6806359B1, “Hormone receptor compositions and methods” (The Salk Institute for Biological Studies, priority 1986, dated 2004).

Target: T1, hMR (Homo sapiens, UniProt P08235)
T1 sequence (P08235 1-984): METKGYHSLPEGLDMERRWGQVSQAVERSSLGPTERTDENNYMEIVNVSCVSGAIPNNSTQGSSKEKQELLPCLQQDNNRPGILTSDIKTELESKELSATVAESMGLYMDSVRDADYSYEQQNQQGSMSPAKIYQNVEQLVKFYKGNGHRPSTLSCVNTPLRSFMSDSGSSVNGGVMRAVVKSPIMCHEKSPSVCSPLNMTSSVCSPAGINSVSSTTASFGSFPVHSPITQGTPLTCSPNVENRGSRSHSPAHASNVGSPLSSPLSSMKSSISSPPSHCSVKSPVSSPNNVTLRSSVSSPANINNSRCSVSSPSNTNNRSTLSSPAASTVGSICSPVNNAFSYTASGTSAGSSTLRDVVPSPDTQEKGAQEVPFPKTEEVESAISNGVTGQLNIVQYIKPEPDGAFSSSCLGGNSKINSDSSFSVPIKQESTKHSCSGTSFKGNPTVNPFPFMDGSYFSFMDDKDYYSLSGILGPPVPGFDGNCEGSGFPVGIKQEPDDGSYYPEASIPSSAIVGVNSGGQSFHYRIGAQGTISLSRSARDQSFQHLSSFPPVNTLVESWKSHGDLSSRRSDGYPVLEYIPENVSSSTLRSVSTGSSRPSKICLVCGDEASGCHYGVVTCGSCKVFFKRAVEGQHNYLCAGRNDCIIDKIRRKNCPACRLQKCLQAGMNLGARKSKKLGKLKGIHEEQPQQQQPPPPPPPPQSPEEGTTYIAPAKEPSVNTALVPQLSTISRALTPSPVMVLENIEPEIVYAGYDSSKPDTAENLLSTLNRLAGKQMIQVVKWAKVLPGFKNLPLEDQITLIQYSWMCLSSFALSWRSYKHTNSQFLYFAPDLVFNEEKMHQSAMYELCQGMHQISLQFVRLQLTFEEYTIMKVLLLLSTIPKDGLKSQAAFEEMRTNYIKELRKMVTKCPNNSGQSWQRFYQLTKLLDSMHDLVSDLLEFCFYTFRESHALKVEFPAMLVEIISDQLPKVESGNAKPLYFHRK
Experiment: [^3H]aldosterone binding and steroid competition in extracts of pRShMR-transfected COS cells
Design: expressed in transfected cells; host or cells: COS cells transfected with pRShMR (DEAE-dextran)
Conditions: 1-, 10-, or 100-fold molar excess of unlabeled steroid
Description: Ligand specificity of the hMR protein was determined by preparing cytosol extracts from COS cells transfected with pRShMR. Two days after transfection, cells were harvested, and hormone binding was measured by a dextran-treated charcoal assay. […] This provided a measure of the relative affinity of each of these steroids for hMR.
Steroid-binding properties of expressed hMR. FIG. 38 Structure of pRShMR, the hMR expression plasmid (41). […] Each point was assayed in triplicate with 100 micrograms of extract protein in a 200-microliter incubation at 0° C. for 2.5 hours. […] The results of two independent trials representative of these competition experiments are shown. Cold competitor was present in 1-, 10-, or 100-fold molar excess. […] Subconfluent COS cells were transfected by the DEAE-dextran method (42) with 10 micrograms of pRShMR per dish. Cells were maintained for 2 days in DMEM (Dulbecco's modification of Eagle's minimum essential medium) with 5 percent charcoal-treated fetal calf serum, then harvested in […] tris-HCl. (pH 7.8), 10 nM NaCl, 1 mM EDTA, 10 mM Na2MoO4, 5 mM dithiothreitol, antipain (5 microgram/ml), leupeptin (5 microgram/ml), and 500 microM phenylmethylsulfonyl fluoride. After centrifugation at 15,000×g for 10 minutes, extracts were adjusted to 100 mM NaCl and 5 percent glycerol before binding. […] After centrifugation at 15,000×g for 2 minutes at 40C, tritium in supernatant was quantified by liquid scintillation spectrophotometry.

In the case of `C[C@]12CC[C@@H]3c4ccc(O)cc4CC[C@H]3[C@@H]1CC[C@@H]2O` [oestradiol], the “relative affinity for hMR by competition with 5 nM [^3H]aldosterone (in words)” value is reported as “competed very poorly”.
